Converted amounts (≈) assume the structure as drawn. Where two headings read alike, the source gives them in different places.
Key:
CYP2E1 = tested on: CYP2E1; parameters: method as in PMID 12584850; details: rat liver microsomes; cited from earlier work
P-gp = tested on: P-gp; parameters: method as in PMID 16904803; details: in vitro study; cited from earlier work
cell membranes = tested on: cell membranes; parameters: method as in PMID 24870200; details: cited from earlier work
[1] = parameters: method as in PMID 19929808; details: cited from earlier work
CYP3A = tested on: CYP3A; parameters: method as in PMID 12584850; details: rat liver microsomes; cited from earlier work
CYP1A1 = tested on: CYP1A1; parameters: method as in PMID 12584850; details: rat liver microsomes; cited from earlier work
[2] = Phase-solubility test of PTX in GA / ethanol-water solutions; format: physicochemical
Protocol: The phase-solubility test was performed with a previously reported method. An excess quantity of PTX was taken into clean and dry vials containing 1 mL of various concentrations of GA solutions ([…]). […] Ultimately, the samples were filtered through 0.45 μm filters and the concentrations of PTX were detected by high performance liquid chromatography (HPLC; LC-20A, Shimadzu, Japan) (see Section 3.3.6.). All tests were repeated at least three times.

[3] = parameters: method as in PMID 7939764; details: cited from earlier work
[4] = parameters: method as in PMID 11879753; details: cited from earlier work

solubility at 48 h ([2]; 10 mM GA solution in water, aqueous with cosolvent or surfactant or cyclodextrin, thermodynamic from solid, water, in the presence of 10 mM GA, 25 °C, read-out: solubility of PTX)	solubility at 48 h ([2]; 7.5% ethanol in water with 10 mM GA, 25 °C, aqueous with cosolvent or surfactant or cyclodextrin, thermodynamic from solid, optimal ethanol percentage (7.5%) with GA (10 mM), read-out: PTX solubility)	solubility increase ([2]; 7.5% ethanol with GA vs solubility of PTX in water)	solubility at 48 h ([2]; ethanol-water mixtures without GA, 0%, 5%, 7.5%, 10% and 25% ethanol in water, without GA, read-out: solubility of PTX in different percentages of ethanol)	solubility at 48 h ([2]; water, absence of GA, 25 °C, read-out: solubility of PTX in water)	SMILES	inhibitor of CYP2E1 (CYP2E1)	inhibition of the function of P-gp (P-gp)	increase of the permeability of cell membranes (cell membranes)	critical micelle concentration [1]	inhibitor of CYP3A (CYP3A)	inhibitor of CYP1A1 (CYP1A1)	oral bioavailability [3]	aqueous solubility [4]
					CC1(C)[C@@H](O[C@H]2O[C@H](C(=O)O)[C@@H](O)[C@H](O)[C@H]2O[C@@H]2O[C@H](C(=O)O)[C@@H](O)[C@H](O)[C@H]2O)CC[C@]2(C)[C@H]3C(=O)C=C4[C@@H]5C[C@@](C)(C(=O)O)CC[C@]5(C)CC[C@@]4(C)[C@]3(C)CC[C@@H]12 [GA, Glycyrrhizic acid]	inhibitor	inhibited the function of P-gp	about 60%	10^−3 M	inhibitor	inhibitor		
124 µg/mL	823 ± 14.4 µg/mL (≈ 964 µM)	more than 1,000 fold	≤ 30 µg/mL	~0.67 µg/mL (≈ 0.785 µM)	CC(=O)O[C@H]1C(=O)[C@@]2(C)[C@H]([C@H](OC(=O)c3ccccc3)[C@]3(O)C[C@H](OC(=O)[C@H](O)[C@@H](NC(=O)c4ccccc4)c4ccccc4)C(C)=C1C3(C)C)[C@]1(OC(C)=O)CO[C@@H]1C[C@@H]2O [PTX, Paclitaxel]							< 2%	< 1 µg/mL
